# US20080261895A1 (Wyeth, priority 2006, published 2008)
# “And” between values parts separate entries of the source, which are not always exact repeats. Identical values can stand only once.
# Tests used:
# [1] = Stability of [14C]DVS in control dog urine; format: in vitro ADME; settings: 37° C., up to 24 hours
# Procedure: The stability of [^14C]DVS in dog urine was determined. [^14C]DVS (0.025 mg/mL, final concentration) was added to control dog urine and incubated in a shaking water bath set to 37° C. Aliquots (1 mL) were removed at 0, 1, 4, 8 and 24 hours. Samples were extracted as described above and radiopurity assayed by HPLC analysis.
# [2] = Whole blood and plasma radioactivity and partitioning after single oral [14C]DVS, rats; format: in vivo, Sprague Dawley rats; settings: single oral 20 mg/kg; for Radioactivity in Plasma, Individual Rats / Radioactivity in Plasma, Mean ± S.D. / Radioactivity in Whole Blood, Individual Rats: listed as [^14C]DVS, 20 mg/kg
# Description: Sprague Dawley rats (12 male and 6 female), weighing between 0.311 and 0.345 kg for males and between 0.263 and 0.311 kg for females at the time of dosing, were used. Animals were given food and water ad libitum. For ease of reporting, the animals were designated numbers 001M through 012M for the male rats and 001F through 006F for the female rats. Three animals from the last time point, for each sex, were housed individually in metabolism cages for the collection of urine and feces. The other animals were housed individually in standard cages.
# The oral dosing solution was prepared by combining 86.4 mL of 3.0 mg/mL (2.0 mg/mL, free base) unlabeled DVS solution with 3.6 mL of 4.3 mg/mL (3.0 mg/mL free base) [^14C]DVS solution. Solutions were prepared in 0.25% polysorbate 80, 0.5% methylcellulose in water. The radiochemical purity, specific activity and concentration of [^14C]DVS (bulk drug and dosing solution) were determined using HPLC with radiometric detection. Aliquots of the dosing solution were taken pre-, mid-, and post-dose for the determination of specific activity and radioactivity concentrations of dosing solution.
# Whole blood (approximately 5 mL) was collected by cardiac puncture into heparinized tubes at the appropriate time points (1, 4, 8, and 24 hours for male rats, and 1 and 8 hours for female rats, N=3 for each sex at each time point). Triplicate aliquots (200 μL) of whole blood were placed into combusto-cones, weighed and allowed to air dry. These samples were oxidized. The remaining blood was centrifuged at 5000×g and 4° C. for 10 minutes (Model Legend RT centrifuge, Sorvall). The resulting plasma was transferred to fresh tubes and triplicate aliquots (100 μL) were analyzed for radioactivity content. The remaining plasma was stored at −70° C. until metabolite analysis.
# Blood samples and fecal homogenates were oxidized in a Model 307 Tri-Carb sample oxidizer, using Carbosorb® E (6 mL) as trapping agent and PermaFluor® E^+ (10 mL) as scintillant. Oxidation efficiency was determined by oxidation of C-Spec-Chec (Perkin Elmer), a standard of known radioactivity, and determined to be 98.7%. The background reading (average of control blood or fecal samples) was subtracted from each sample reading. Aliquots of urine and plasma were analyzed directly following the addition of 10 mL of Ultima Gold™ scintillation fluid.
# All radioactivity determinations were made using a Tri-Carb Model 3100TR liquid scintillation counter (Perkin Elmer) with an Ultima Gold™ or toluene standard curve. Counts per minute (CPM) were converted to disintegrations per minute (DPM) by use of external standards of known radioactivity. The quench of each standard was determined by the transformed spectral index of an external radioactive standard (tSIE). The lower limits of detection were defined as twice background.
structure (smiles),measurement,setting,value
"CN(C)CC(c1ccc(O)cc1)C1(O)CCCCC1.O=C(O)CCC(=O)O (stereo not shown) [DVS, O-desmethylvenlafaxine succinate]",Stability of [14C]DVS in control dog urine,[1],stable
same,"Radioactivity in Whole Blood, Mean ± S.D.","[2]; 1 hr, female",6.18 ± 0.74 μg equivalents/mL
same,"Radioactivity in Plasma, Individual Rats","[2]; 1 hr, female",9.61 μg equivalents/mL and 8.74 μg equivalents/mL and 11.3 μg equivalents/mL
same,"Radioactivity in Plasma, Mean ± S.D.","[2]; 1 hr, female",9.90 μg equivalents/mL and 9.90 ± 1.2 μg equivalents/mL
same,"Radioactivity in Whole Blood, Individual Rats","[2]; 1 hr, female",5.63 μg equivalents/mL and 5.76 μg equivalents/mL and 7.15 μg equivalents/mL
same,"Radioactivity in Whole Blood, Mean ± S.D.","[2]; 1 hr, male",6.87 ± 1.50 μg equivalents/mL
same,"Radioactivity in Plasma, Individual Rats","[2]; 1 hr, male",10.4 μg equivalents/mL and 8.90 μg equivalents/mL and 13.7 μg equivalents/mL
same,"Radioactivity in Plasma, Mean ± S.D.","[2]; 1 hr, male",11.0 μg equivalents/mL and 11.0 ± 2.2 μg equivalents/mL
same,"Radioactivity in Whole Blood, Individual Rats","[2]; 1 hr, male",6.11 μg equivalents/mL and 5.66 μg equivalents/mL and 8.85 μg equivalents/mL
same,"Radioactivity in Whole Blood, Mean ± S.D.","[2]; 4 hr, male",0.88 ± 0.12 μg equivalents/mL
same,"Radioactivity in Plasma, Individual Rats","[2]; 4 hr, male",1.59 μg equivalents/mL and 1.62 μg equivalents/mL and 1.22 μg equivalents/mL
same,"Radioactivity in Plasma, Mean ± S.D.","[2]; 4 hr, male",1.48 μg equivalents/mL and 1.48 ± 0.20 μg equivalents/mL
same,"Radioactivity in Whole Blood, Individual Rats","[2]; 4 hr, male",0.95 μg equivalents/mL and 0.96 μg equivalents/mL and 0.72 μg equivalents/mL
same,"Radioactivity in Whole Blood, Mean ± S.D.","[2]; 8 hr, female",0.58 ± 0.07 μg equivalents/mL
same,"Radioactivity in Plasma, Individual Rats","[2]; 8 hr, female",0.86 μg equivalents/mL and 0.82 μg equivalents/mL and 1.08 μg equivalents/mL
same,"Radioactivity in Plasma, Mean ± S.D.","[2]; 8 hr, female",0.92 μg equivalents/mL and 0.92 ± 0.12 μg equivalents/mL
same,"Radioactivity in Whole Blood, Individual Rats","[2]; 8 hr, female",0.59 μg equivalents/mL and 0.50 μg equivalents/mL and 0.66 μg equivalents/mL
same,"Radioactivity in Whole Blood, Mean ± S.D.","[2]; 8 hr, male",0.59 ± 0.18 μg equivalents/mL
same,"Radioactivity in Plasma, Individual Rats","[2]; 8 hr, male",0.53 μg equivalents/mL and 1.10 μg equivalents/mL and 1.05 μg equivalents/mL
same,"Radioactivity in Plasma, Mean ± S.D.","[2]; 8 hr, male",0.89 μg equivalents/mL and 0.89 ± 0.27 μg equivalents/mL
same,"Radioactivity in Whole Blood, Individual Rats","[2]; 8 hr, male",0.35 μg equivalents/mL and 0.71 μg equivalents/mL (2×)
same,"Radioactivity in Whole Blood, Mean ± S.D.","[2]; 24 hr, male",0.07 ± 0.01 μg equivalents/mL
same,"Radioactivity in Plasma, Individual Rats","[2]; 24 hr, male",0.07 μg equivalents/mL and 0.08 μg equivalents/mL and 0.05 μg equivalents/mL
same,"Radioactivity in Plasma, Mean ± S.D.","[2]; 24 hr, male",0.07 μg equivalents/mL and 0.07 ± 0.01 μg equivalents/mL
same,"Radioactivity in Whole Blood, Individual Rats","[2]; 24 hr, male",0.06 μg equivalents/mL and 0.08 μg equivalents/mL and 0.05 μg equivalents/mL
